Patent publication US20070202502A1, “Assay For Bipolar Affective Disorder” (priority 2004, published 2007)
“Also recorded” adds a separate entry of the source.

System: mouse FAT mRNA
Assay: FAT mRNA expression in whole brain of mice treated with lithium or valproate, quantitative real-time PCR
Details: C57B16 mice, intraperitoneal once daily for 7 days (lithium 340 mg/kg/day; valproate 350 mg/kg/day)

SMILES: CCCC(CCC)C(=O)O [valproate, 2-propylpentanoic acid]
- effect on relative FAT mRNA expression level (relative to GAPDH mRNA): appear to reduce; also recorded: appears to be reduced
